From the supplement of paper PMC10307832

Assays:
Assay in all cases: relative viability (nuclei count vs DMSO), 5 days (fraction); higher = more cells survive
BMX-IN-1 + Navitoclax = compound: C=CC(=O)Nc1cc(-n2c(=O)ccc3cnc4ccc(-c5ccc(NS(C)(=O)=O)cc5)cc4c32)ccc1C [BMX-IN-1] + CC1(C)CCC(c2ccc(Cl)cc2)=C(CN2CCN(c3ccc(C(=O)NS(=O)(=O)c4ccc(N[C@H](CCN5CCOCC5)CSc5ccccc5)c(S(=O)(=O)C(F)(F)F)c4)cc3)CC2)C1 [Navitoclax] (partner 0.5 µM)
Procedure, shortened: (§1)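 Medians of duplicate plates are given as relative viability. That measure is the nuclei count in treated wells divided by the count in vehicle wells. Counts were taken on 4× images of lung cancer cell lines in 1536-well plates, 5 days after pin-tool dosing the day after seeding with one drug alone or a fixed anchor-drug dose plus five library-drug doses (not always all listed) in √10 steps.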

Ibrutinib + Dasatinib = compound: C=CC(=O)N1CCC[C@@H](n2nc(-c3ccc(Oc4ccccc4)cc3)c3c(N)ncnc32)C1 [Ibrutinib] + Cc1nc(Nc2ncc(C(=O)Nc3c(C)cccc3Cl)s2)cc(N2CCN(CCO)CC2)n1 [Dasatinib] (partner 0.075 µM)
Procedure, shortened: as §1

BMX-IN-1 + Pemetrexed = compound: C=CC(=O)Nc1cc(-n2c(=O)ccc3cnc4ccc(-c5ccc(NS(C)(=O)=O)cc5)cc4c32)ccc1C [BMX-IN-1] + Nc1nc2[nH]cc(CCc3ccc(C(=O)N[C@@H](CCC(=O)O)C(=O)O)cc3)c2c(=O)[nH]1 [Pemetrexed] (partner 0.2 µM)
Procedure, shortened: as §1

BMX-IN-1 + Palbociclib = compound: C=CC(=O)Nc1cc(-n2c(=O)ccc3cnc4ccc(-c5ccc(NS(C)(=O)=O)cc5)cc4c32)ccc1C [BMX-IN-1] + CC(=O)c1c(C)c2cnc(Nc3ccc(N4CCNCC4)cn3)nc2n(C2CCCC2)c1=O [Palbociclib] (partner 0.5 µM)
Procedure, shortened: as §1

Row | Cell Line | relative viability (BMX-IN-1 + Navitoclax; first compound 0.02 µM) | relative viability (BMX-IN-1 + Navitoclax; first compound 0.2 µM) | relative viability (BMX-IN-1 + Navitoclax; first compound 0.6325 µM) | relative viability (BMX-IN-1 + Navitoclax; first compound 2 µM) | relative viability (Ibrutinib + Dasatinib; first compound 0.005 µM) | relative viability (Ibrutinib + Dasatinib; first compound 0.01581 µM) | relative viability (Ibrutinib + Dasatinib; first compound 0.05 µM) | relative viability (Ibrutinib + Dasatinib; first compound 0.1581 µM) | relative viability (Ibrutinib + Dasatinib; first compound 0.5 µM) | relative viability (BMX-IN-1 + Pemetrexed; first compound 0.02 µM) | relative viability (BMX-IN-1 + Pemetrexed; first compound 0.2 µM) | relative viability (BMX-IN-1 + Pemetrexed; first compound 0.6325 µM) | relative viability (BMX-IN-1 + Pemetrexed; first compound 2 µM) | relative viability (BMX-IN-1 + Palbociclib; first compound 0.02 µM) | relative viability (BMX-IN-1 + Palbociclib; first compound 0.2 µM) | relative viability (BMX-IN-1 + Palbociclib; first compound 0.6325 µM) | relative viability (BMX-IN-1 + Palbociclib; first compound 2 µM)
1 | NCI-H1355 | 1 | 0.969 | 0.94 | 0.99 | 0.527 | 0.647 | 0.718 | 0.623 | 0.677 | 1.1 | 1.1 | 1.06 | 1.04 | 0.394 | 0.392 | 0.399 | 0.404
2 | LK-2 | 1.09 | 1.04 | 1.02 | 0.923 | – | 0.273 | 0.278 | 0.224 | 0.293 | 0.163 | 0.256 | 0.254 | 0.225 | 1.1 | 0.75 | 0.704 | 0.895
3 | NCI-H1650 | 1.16 | 1.25 | 1.36 | 1.25 | 0.304 | 0.281 | 0.321 | 0.369 | 0.346 | 0.354 | 0.354 | 0.541 | 0.325 | 0.307 | 0.313 | 0.32 | 0.333
4 | NCI-H838 | 1.39 | 1.33 | 1.21 | 1.18 | 0.327 | 0.286 | 0.297 | 0.251 | 0.289 | 0.255 | 0.244 | 0.237 | 0.236 | 0.241 | 0.198 | 0.222 | 0.24
5 | EMC-BAC-2 | 1.41 | 1.35 | 1.08 | 1.19 | 0.314 | 0.316 | 0.346 | 0.343 | 0.296 | 0.448 | 0.486 | 0.466 | 0.44 | 0.543 | 0.537 | 0.528 | 0.516
6 | SW 1573 | 1.22 | 1.39 | 1.21 | 0.808 | 0.647 | 0.494 | 0.477 | 0.588 | 0.514 | 0.901 | 1.02 | 0.931 | 0.666 | 0.411 | 0.413 | 0.391 | 0.334
7 | CAL-12T | 1.28 | 1.21 | 1.22 | 1.24 | 0.363 | 0.295 | 0.354 | 0.475 | 0.24 | 1.27 | 1.36 | 1.37 | 1.15 | 0.466 | 0.415 | 0.523 | 0.503
8 | NCI-H2009 | 1.23 | 1.31 | 1.19 | 1.24 | 0.3 | 0.254 | 0.319 | 0.267 | 0.386 | 1.08 | 1.06 | 1.09 | 1.07 | 0.182 | 0.212 | 0.207 | 0.254
9 | HARA | 1.22 | 1.36 | 1.09 | 1.08 | 0.288 | 0.235 | 0.223 | 0.236 | 0.194 | 0.257 | 0.271 | 0.282 | 0.255 | 0.304 | 0.299 | 0.258 | 0.247
10 | HCC-827 | 1.02 | 0.992 | 1 | 1.03 | 0.358 | 0.277 | 0.206 | 0.262 | 0.143 | 0.237 | 0.297 | 0.287 | 0.235 | 0.486 | 0.409 | 0.503 | 0.467
11 | EBC-1 | 0.425 | 0.341 | 0.434 | 0.329 | – | – | – | – | – | – | – | – | – | – | – | – | –
12 | NCI-H647 | 1.52 | 1.23 | 1.03 | 1.16 | – | 0.164 | 0.167 | 0.206 | 0.174 | 0.162 | 0.169 | 0.15 | 0.142 | 0.436 | 0.384 | 0.377 | 0.416
13 | A549 | 1.5 | 1.44 | 1.37 | 1.17 | – | – | – | – | – | – | – | – | – | – | – | – | –
14 | NCI-H661 | – | – | – | – | 0.626 | 0.581 | 0.417 | 0.842 | 0.425 | 1.02 | 0.96 | 0.961 | 0.899 | 0.388 | 0.39 | 0.421 | 0.398
15 | NCI-H1651 | 1.24 | 1.2 | 1.02 | 1.04 | 0.446 | 0.386 | 0.368 | 0.352 | 0.428 | 0.391 | 0.642 | 0.781 | 0.486 | 0.598 | 0.559 | 0.511 | 0.533
16 | HCC-78 | 0.859 | 0.851 | 1 | 0.863 | 0.309 | 0.402 | 0.304 | 0.312 | 0.267 | 0.971 | 0.989 | 0.935 | 0.913 | 0.447 | 0.464 | 0.492 | 0.549
17 | NCI-H2085 | 1.23 | 1.31 | 1.2 | 1.07 | 0.26 | 0.254 | 0.219 | 0.202 | 0.216 | 0.968 | 0.823 | 0.923 | 0.909 | 0.473 | 0.438 | 0.484 | 0.46
18 | NCI-H2228 | 0.954 | 0.853 | 1.44 | 0.969 | 0.584 | – | 0.553 | 0.5 | 0.428 | 0.408 | 0.331 | 0.396 | 0.325 | 0.948 | 0.878 | 0.608 | 0.785
19 | LU99A | 0.897 | 0.885 | 0.857 | 0.833 | 0.514 | 0.605 | 0.465 | 0.556 | 0.483 | 0.198 | 0.226 | 0.183 | 0.141 | 0.45 | 0.428 | 0.421 | 0.411
20 | NCI-H522 | – | – | – | – | 0.744 | 0.584 | 0.731 | 0.773 | 0.723 | 1 | 1.03 | 1.12 | 1.14 | 0.841 | 1.14 | 1.02 | 0.86
